From patent US8158811B2, “Unsaturated fatty hydroxy acid derivatives and the dermocosmetologic use thereof” (Pierre Fabre Dermo-Cosmetique, priority 2005, dated 2012)

Experiments:
[1] = tested on: membrane lipids, fibroblast line L929; assay: TBARS test, lipid peroxidation after H2O2/Fe2+/Fe3+; format: cell-based, murin; conditions: 0.02 ng/ml, pretreated 16 hours
From the text: In order to evaluate membrane changes, we measured lipid peroxidation by in vitro assay of complexes between the products of lipid oxidation and thiobarbituric acid. These complexes are called TBARS (thiobarbituric acid reactive substances) and give the test its name: TBARS Test.
In order to mimic chemical oxidative stress, we treated a fibroblast line (L929) with a complex consisting of hydrogen peroxide (H2O2) and iron (Fe^2+/Fe^3+) thus reconstituting the Fenton reaction which is the source of oxygenated free radicals and particularly the hydroxyl radical (OH°) (D. A Vessey et al. 1992): H2O2+Fe^2+→OH°+OH^−+Fe^3+
The products were evaluated on a murin fibroblast line L929. Cells were pretreated with different concentrations of the product for 16 hours and were then stimulated with the H2O2/Fe^2+/Fe^3+ complex (200 μM−1 mM) for 1 hour. • Stock solutions: 100 mg/ml ethanol, 4° C. • Final solutions: 0.02 ng/ml.
Peroxidation of membrane lipids was analysed by measuring TBARS (Protocol ref. PLN°2, according to Morliere et al, 1991).
[…]. TBARS assays are therefore expressed in pmole/μg of protein. Proteins and TBARS are assayed in the intracellular medium.
Using the TBARS calculation in pmole/μg protein, we calculated the protective efficacy of various products against the oxidation of lipid membranes.
Four separate experiments were carried out. Several compounds were evaluated in the course of these experiments (the test only allows 10 molecules to be evaluated at one time). The compounds were evaluated several times and were chosen as a function of the results obtained in another test which also measured anti-radical activity (assay test for activated oxygen species).
The model used in this experiment (Fenton reaction) triggers considerable lipid peroxidation of the L929 fibroblasts. This massive release of the hydroxyl radical OH° thus generates oxidative stress in the cells, particularly in the membranes. However, in this type of oxidative reaction, the products resulting from lipid peroxidation are internalized in the cells and TBARS are therefore assayed in the intracellular medium.

prostaglandin 6KF1α = assay: production of prostaglandin 6KF1α by keratinocytes stimulated with calcium ionophore A23187 (ELISA); format: cell-based; conditions: 3 μg/ml, A23187 1 μm 5 hours
Method: A suspension of keratinocytes in DMEM 10% foetal calf serum was divided into 6 well plates (1.2. 106cells/wells) and incubated for 16 hours at 37° C. in a 5% CO2 atmosphere. The keratinocytes were then rinsed with PBS in order to eliminate non adhering cells then exposed to the products to be tested included in DMEM without foetal calf serum (which could interfere with the assay).
The concentration tested in culture was 3 μg/ml. This was retained as the test concentration after a preliminary evaluation test for cytotoxicity (neutral red) and is not cytotoxic.
For each treatment, three wells were tested. Cells were pre-incubated for 60 minutes with the products to be tested then a stimulating agent was added to stimulate the arachidonic acid cascade (calcium ionophore) which was added for 5 hours: calcium ionophore A23187 was used at a concentration of 1 μm.
After 5 hours in culture, the culture medium for each well was recovered, centrifuged at 3000 rpm and stored at −80° C.
The production of prostaglandin 6KF1α for each of the tests was measured using a EUROMEDEX Elisa Kit.
Results are expressed as the percentage activity/stimulated control.

transglutaminase 1 (TG1) = assay: keratinocyte differentiation, real-time RT-PCR of transglutaminase 1 transcripts; format: cell-based, human; conditions: NHK, 48 hours
Method: (§1) Normal human keratinocytes (NHK) proliferate and differentiate in vitro, forming stratified layers which mimic the basal organisation of the skin. Extracellular calcium concentrations in excess of 0.1 mM initiate a cascade of genome and non-genome events which take the keratinocytes from a proliferative phase towards a differentiation phase. Keratinocyte differentiation can then be evaluated by studying the expression of several markers such as keratins 1 and 10, transglutaminase 1, desaturase DES2, involucrine, FATP4 and ABCG1 transporters. We therefore evaluated the effect of certain hydroxyalcene carboxylic acids in an in vitro culture model.
(§2) Normal human keratinocytes are isolated from skin explants. They are cultured in KSFM medium (Gibco) with a low calcium content (0.1 mM) containing 25 μg/ml of BPE (bovine pituitary extract) and […] of EGF (epithelium growth factor). 24 hours after culturing, differentiation is triggered by the addition of calcium (final concentration 1.2 mM). The active ingredients are added or not at the same time as calcium at concentrations of 100 and 1 μg/ml in order to determine whether or not they have a potentialising effect on differentiation. Cells were then analysed 48 hours after the addition of calcium and these products.
(§3) Total RNA was extracted under cold conditions from keratinocytes.
(§4) After reverse transcription of mRNA into cDNA, PCRs were made up in 96 well plates (iCycler quantitative PCR apparatus, BioRad). Expression of transcripts of transglutaminase, desaturase (DES2), ABCG1 and FATP4 were standardized with respect to the expression of reference genes (GAPDH, UBC, HPRT).

desaturase DES2 = assay: keratinocyte differentiation, real-time RT-PCR of DES2 transcripts; format: cell-based, human; conditions: NHK, 48 hours
Method: as §1, §2, §3, §4

Interleukin 8 = assay: release of Interleukin 8 by keratinocytes NHK stimulated with PMA + calcium ionophore A23187 (ELISA); format: cell-based, human; conditions: for % inhibition of IL-8 release: 3 μg/ml, keratinocytes, PMA + A23187 6 hours; for % Inhibition a 3 μg/ml: IL8 release, NHK, PMA + A23187
Method: In this study, carried out using 96 well plates, we evaluated the activity of hydroxyl alkine acids on the production of Interleukin 8 produced in the keratinocytes by phorbol ester PMA and calcium ionophore A23187.
A suspension of keratinocytes in supplemented KSFM was divided between 96 well plates (3.10^4 cells/wells) and incubated for 16 hours at 37° C. under an atmosphere of 5% CO2. The keratinocytes were then rinsed with PBS in order to eliminate non adhering cells then exposed to the products to be tested included in non supplemented KSFM (which could interfere with the assay).
The concentration tested in culture was 3 μg/ml. This was retained after a preliminary test to evaluate cytotoxicity (neutral red) and is not cytotoxic.
3 wells were used for each treatment. Cells were preincubated for 60 minutes with the products to be tested then stimulated, in parallel to negative controls without stimulant: Phorbol Myristate Acetate (PMA) 1 μm+Calcium ionophore (A23187) 0.1 μm.
Incubation for 6 hours at 37° C. in a humid air atmosphere containing 5% CO2.
The culture medium for each of the wells was recovered, centrifuged at 3000 rpm and stored at −80° C.
Cytokine assay: IL8 was assayed using the ELISA kit immunoenzyme method (immunotech).
The results are given as percentage activity/stimulated control.
The compounds according to the invention were evaluated in terms of anti-inflammatory activity on the release of Interleukin 8 by human keratinocytes NHK stimulated by phorbol ester PMA+calcium ionophore A23187.

FATP4 = assay: keratinocyte differentiation, real-time RT-PCR of FATP4 transcripts; format: cell-based, human; conditions: NHK, 48 hours
Method: as §1, §2, §3, §4

Compound | % membrane lipid protection, Mean [1] | % inhibiting activity of evaluated molecules on the production of PG6KF1α Inflammation (prostaglandin 6KF1α) | Induction Factor vs Control (CaCl2 1.2 mM) TG1 (transglutaminase 1 (TG1); 1 μg/ml) | Induction Factor vs Control (CaCl2 1.2 mM) DES2 (desaturase DES2; 1 μg/ml) | % inhibition of IL-8 release (Interleukin 8) | % Inhibition a 3 μg/ml (Interleukin 8) | Induction Factor vs Control (CaCl2 1.2 mM) FATP4 (FATP4; 1 μg/ml) | Induction Factor vs Control (CaCl2 1.2 mM) TG1 (transglutaminase 1 (TG1); 100 μg/ml) | Induction Factor vs Control (CaCl2 1.2 mM) DES2 (desaturase DES2; 100 μg/ml) | Induction Factor vs Control (CaCl2 1.2 mM) FATP4 (FATP4; 100 μg/ml)
O=C(O)/C=C/CCCCCCCCCCCCCCO [n=13, R=H, Rn=H, R1=H, 17-hydroxy-heptadec-2t-enoic acid] | 22.10% | 25% | 1.4 | 3.0 | 62% | 62% | 1.4 | – | – | –
O=C(O)C=CCCCCCO [n=4, R=H, Rn=H, R1=H] | 37.88% | – | 1.2 | 1.0 | 15% | – | 1.0 | 1.7 | 2.2 | 1.4
O=C(O)C(F)=CCCCCCCCCCCCO [n=10, R=H, Rn=H, R1=F, 14-hydroxy-tetradec-2-fluoro-2-enoic acid] | 13.13% | 18% | 1.4 | 1.6 | 30% | – | 1.0 | 3.5 | 16.0 | 2.3
O=C(O)C(F)=CCCCCCCCCCCCCCCO [n=13, R=H, Rn=H, R1=F, 17-hydroxy-heptadec-2-fluoro-2-enoic acid] | 7.39% | 14% | 4.2 | 9.0 | 107% | 107% | 2.2 | – | – | –
O=C(O)/C=C/CCCCCCCCCCCO [n=10, R=H, Rn=H, R1=H, 14-hydroxy-tetradec-2t-enoic acid] | 27.18% | Non active | 1.5 | 2.0 | 30% | – | 1.2 | 31.4 | 125.8 | 5.9
O=C(O)C=CCCCCO [n=3, R=H, Rn=H, R1=H] | 15.7% | 29% | 1.2 | 1.6 | 50% | – | 1.4 | 2.6 | 2.4 | 1.2
O=C(O)C(F)=CCCCCCO (mixture of isomers) [n=4, R=H, Rn=H, R1=F] | 36.54% | 30% | 1.6 | 2.2 | Non-active | – | 1.3 | 1.7 | 3.2 | 1.4
O=C(O)/C=C/CCCCCCCCCCO [n=9, R=H, Rn=H, R1=H, 13-hydroxy-tridec-2t-enoic acid] | 8.72% | 31% | 1.4 | 1.8 | 16% | – | 1.2 | 14.8 | 51.7 | 4.5
